Here are results for twelve molecules from ChEMBL document CHEMBL5465560, “Selectivity Literature for EUbOPEN Chemogenomic Library” (2024).

Bounds are passed on as bounds.

The target in assay [1] is Ribosomal protein S6 kinase alpha-4 (Homo sapiens) (UniProt O75676). Nature of the assay: Selectivity interaction (KinomeScan (DiscoverX)) EUB0000595a RPS6KA4. To be noted: at 10 µM.
The target of assay [2] is Serine/threonine-protein kinase Nek6 (Homo sapiens) (UniProt Q9HC98). Nature of the assay: Selectivity interaction (ActivX KiNativ screen (ex vivo kinase selectivity in human PBMCs)) EUB0001619a NEK6. Format: cell-based. Conditions: PBMC, at 1 µM.
Chain of Serine/threonine-protein kinase Nek6 (Homo sapiens) (Q9HC98 whole entry): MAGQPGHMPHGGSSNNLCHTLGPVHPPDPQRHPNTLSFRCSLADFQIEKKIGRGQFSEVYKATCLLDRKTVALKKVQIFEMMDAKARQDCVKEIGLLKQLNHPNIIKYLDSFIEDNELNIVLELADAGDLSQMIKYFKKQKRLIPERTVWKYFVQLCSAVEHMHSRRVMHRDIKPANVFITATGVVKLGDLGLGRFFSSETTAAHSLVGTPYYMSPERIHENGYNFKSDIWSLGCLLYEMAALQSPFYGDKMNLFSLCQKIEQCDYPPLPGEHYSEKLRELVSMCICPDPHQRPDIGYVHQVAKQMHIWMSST
For assay [3], the target named is T1, Serine/threonine-protein kinase Nek1 (Homo sapiens) (UniProt Q96PY6).
T1 sequence (whole entry): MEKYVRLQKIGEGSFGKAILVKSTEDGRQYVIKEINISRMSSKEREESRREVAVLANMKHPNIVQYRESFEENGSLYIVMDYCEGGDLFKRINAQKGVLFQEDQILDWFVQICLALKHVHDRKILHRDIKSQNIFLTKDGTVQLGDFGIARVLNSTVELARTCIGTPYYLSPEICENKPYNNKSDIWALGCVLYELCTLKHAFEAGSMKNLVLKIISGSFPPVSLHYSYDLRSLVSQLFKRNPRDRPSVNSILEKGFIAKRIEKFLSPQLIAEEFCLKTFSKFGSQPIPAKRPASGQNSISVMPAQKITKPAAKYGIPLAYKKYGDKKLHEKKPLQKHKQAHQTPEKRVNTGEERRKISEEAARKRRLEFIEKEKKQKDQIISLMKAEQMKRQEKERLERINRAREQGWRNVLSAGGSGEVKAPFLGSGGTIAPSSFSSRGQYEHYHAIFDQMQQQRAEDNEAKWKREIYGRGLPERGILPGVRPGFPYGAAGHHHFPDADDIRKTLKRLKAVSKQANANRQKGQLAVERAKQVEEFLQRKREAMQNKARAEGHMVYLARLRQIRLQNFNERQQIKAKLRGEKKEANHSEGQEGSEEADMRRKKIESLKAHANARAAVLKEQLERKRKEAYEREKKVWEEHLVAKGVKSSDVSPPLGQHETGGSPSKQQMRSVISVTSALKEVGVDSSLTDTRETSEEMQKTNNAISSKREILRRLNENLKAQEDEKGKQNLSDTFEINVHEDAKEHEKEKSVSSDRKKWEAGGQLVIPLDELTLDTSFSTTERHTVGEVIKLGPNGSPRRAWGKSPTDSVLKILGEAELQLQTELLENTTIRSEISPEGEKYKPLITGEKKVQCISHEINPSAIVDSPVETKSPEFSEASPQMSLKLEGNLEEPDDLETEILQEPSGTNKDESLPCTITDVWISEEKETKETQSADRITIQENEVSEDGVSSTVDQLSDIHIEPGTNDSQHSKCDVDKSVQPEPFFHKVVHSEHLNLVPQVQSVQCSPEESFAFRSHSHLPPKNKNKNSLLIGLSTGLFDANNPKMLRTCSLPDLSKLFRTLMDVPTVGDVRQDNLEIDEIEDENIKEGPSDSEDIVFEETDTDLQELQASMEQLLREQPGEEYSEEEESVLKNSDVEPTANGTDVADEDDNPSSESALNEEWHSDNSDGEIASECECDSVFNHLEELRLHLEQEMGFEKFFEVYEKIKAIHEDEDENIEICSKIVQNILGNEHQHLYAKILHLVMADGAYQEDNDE
The assay is described as follows: Selectivity interaction (ActivX KiNativ screen (ex vivo kinase selectivity in human PBMCs)) EUB0001619a NEK1. Conditions: PBMC, at 1 µM. Format: cell-based.

Assay [4] deals with T2, Phosphorylase b kinase gamma catalytic chain, liver/testis isoform (Homo sapiens) (UniProt P15735).
T2 sequence (whole entry): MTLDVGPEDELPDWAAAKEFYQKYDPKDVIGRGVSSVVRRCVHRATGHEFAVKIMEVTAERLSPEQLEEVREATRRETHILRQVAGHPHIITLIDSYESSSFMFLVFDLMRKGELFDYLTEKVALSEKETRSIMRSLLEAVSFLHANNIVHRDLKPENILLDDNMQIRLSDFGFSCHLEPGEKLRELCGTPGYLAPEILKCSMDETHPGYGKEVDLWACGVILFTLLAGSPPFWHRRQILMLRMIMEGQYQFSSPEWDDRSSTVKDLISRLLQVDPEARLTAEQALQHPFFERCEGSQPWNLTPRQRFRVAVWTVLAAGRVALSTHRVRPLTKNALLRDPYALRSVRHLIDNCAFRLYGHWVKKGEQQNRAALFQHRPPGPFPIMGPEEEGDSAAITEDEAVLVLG
Conditions: at 10 µM.

Assay [5] deals with Platelet-derived growth factor receptor beta (Homo sapiens, UniProt P09619). The assay is described as follows: Selectivity interaction (KinomeScan (DiscoverX)) EUB0000695a PDGFRB. To be noted: at 100 nM.
Chain of Platelet-derived growth factor receptor beta (P09619 whole entry): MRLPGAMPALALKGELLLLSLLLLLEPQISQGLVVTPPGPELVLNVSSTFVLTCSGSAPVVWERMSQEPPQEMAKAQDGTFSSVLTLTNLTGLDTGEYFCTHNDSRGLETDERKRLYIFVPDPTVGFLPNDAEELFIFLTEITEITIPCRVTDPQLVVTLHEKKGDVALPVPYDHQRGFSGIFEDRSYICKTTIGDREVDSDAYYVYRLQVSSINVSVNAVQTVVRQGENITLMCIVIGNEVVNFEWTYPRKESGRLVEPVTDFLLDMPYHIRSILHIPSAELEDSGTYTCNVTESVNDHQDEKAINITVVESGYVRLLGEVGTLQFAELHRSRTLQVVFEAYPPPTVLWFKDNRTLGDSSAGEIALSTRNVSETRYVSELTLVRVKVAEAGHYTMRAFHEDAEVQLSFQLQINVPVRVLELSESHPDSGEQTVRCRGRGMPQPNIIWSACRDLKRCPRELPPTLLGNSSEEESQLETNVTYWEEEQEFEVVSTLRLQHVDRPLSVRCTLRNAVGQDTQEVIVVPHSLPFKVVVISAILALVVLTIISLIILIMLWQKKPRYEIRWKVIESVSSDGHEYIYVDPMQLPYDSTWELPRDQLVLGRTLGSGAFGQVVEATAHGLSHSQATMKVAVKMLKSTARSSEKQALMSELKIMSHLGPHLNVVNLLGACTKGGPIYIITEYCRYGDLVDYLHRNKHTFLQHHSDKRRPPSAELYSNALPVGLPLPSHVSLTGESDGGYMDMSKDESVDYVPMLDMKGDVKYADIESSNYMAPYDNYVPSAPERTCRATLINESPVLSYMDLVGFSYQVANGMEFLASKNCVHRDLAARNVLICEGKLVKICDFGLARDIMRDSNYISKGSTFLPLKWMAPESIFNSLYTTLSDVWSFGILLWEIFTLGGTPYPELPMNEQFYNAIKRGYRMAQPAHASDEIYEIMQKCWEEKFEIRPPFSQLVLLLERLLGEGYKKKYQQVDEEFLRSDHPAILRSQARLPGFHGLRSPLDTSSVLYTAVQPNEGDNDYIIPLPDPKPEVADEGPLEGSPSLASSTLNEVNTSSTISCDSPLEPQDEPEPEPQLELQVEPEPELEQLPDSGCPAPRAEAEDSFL
Assay [6] addresses Protein kinase C theta type (Homo sapiens, UniProt Q04759). Nature of the assay: Selectivity interaction (KinomeScan (DiscoverX)) EUB0000666a PRKCQ. Conditions: at 10 µM.
Assay [7] has as its target Mast/stem cell growth factor receptor Kit (Homo sapiens, UniProt P10721). To be noted: at 10 µM.
The target of assay [8] is Proto-oncogene tyrosine-protein kinase Src (Homo sapiens, UniProt P12931). Nature of the assay: Selectivity interaction (KinaseProfiler screening (Millipore)) EUB0000601a SRC. Conditions: at 3 µM.
Chain of Proto-oncogene tyrosine-protein kinase Src (P12931 2-536 limits assumed): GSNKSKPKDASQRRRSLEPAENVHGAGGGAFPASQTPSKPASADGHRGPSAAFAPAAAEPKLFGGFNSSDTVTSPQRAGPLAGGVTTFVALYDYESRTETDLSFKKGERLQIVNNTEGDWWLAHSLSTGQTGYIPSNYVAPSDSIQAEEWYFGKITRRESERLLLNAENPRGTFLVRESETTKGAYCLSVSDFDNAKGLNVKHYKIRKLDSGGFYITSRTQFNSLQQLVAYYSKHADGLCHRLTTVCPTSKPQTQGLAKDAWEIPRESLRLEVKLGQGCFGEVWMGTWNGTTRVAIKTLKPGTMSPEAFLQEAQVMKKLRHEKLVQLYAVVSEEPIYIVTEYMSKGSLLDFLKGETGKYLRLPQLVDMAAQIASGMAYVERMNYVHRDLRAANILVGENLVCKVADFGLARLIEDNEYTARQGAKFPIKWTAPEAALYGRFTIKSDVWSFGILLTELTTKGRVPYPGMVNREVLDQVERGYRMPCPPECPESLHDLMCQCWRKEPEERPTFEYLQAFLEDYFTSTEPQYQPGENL
Assay [9] has as its target Ribosomal protein S6 kinase alpha-2 (Homo sapiens) (UniProt Q15349). The assay is described as follows: Selectivity interaction (ActivX KiNativ screen (kinase selectivity in THP-1 cell lysates)) EUB0000639a RPS6KA2. Type of assay: subcellular. To be noted: lysate, at 0.2 µM.
Assay [10] deals with Serine/threonine-protein kinase Nek6 (Homo sapiens) (UniProt Q9HC98). The assay is described as follows: Selectivity interaction (Kinase panel (literature)) EUB0001199aCl NEK6. To be noted: at 1 µM.
Assay [11] concerns the target Histone-lysine N-methyltransferase EZH2 (Homo sapiens) (UniProt Q15910). The assay is described as follows: Selectivity interaction (Transferase panel (protein, RNA, and DNA methyltransferases. and EP300 (acetyltransferase))) EUB0000270b EZH2.
The target of assay [12] is Protein-tyrosine kinase 2-beta (Homo sapiens) (UniProt Q14289). The assay is described as follows: Selectivity interaction (KinomeScan (DiscoverX)) EUB0000618a PTK2B. To be noted: at 10 µM.
Assay [13] has as its target Focal adhesion kinase 1 (Homo sapiens, UniProt Q05397). Nature of the assay: Selectivity interaction (KinomeScan (DiscoverX)) EUB0000229b PTK2. To be noted: at 10 µM.

Chain of Histone-lysine N-methyltransferase EZH2 (Homo sapiens) (Q15910 whole entry, looked up): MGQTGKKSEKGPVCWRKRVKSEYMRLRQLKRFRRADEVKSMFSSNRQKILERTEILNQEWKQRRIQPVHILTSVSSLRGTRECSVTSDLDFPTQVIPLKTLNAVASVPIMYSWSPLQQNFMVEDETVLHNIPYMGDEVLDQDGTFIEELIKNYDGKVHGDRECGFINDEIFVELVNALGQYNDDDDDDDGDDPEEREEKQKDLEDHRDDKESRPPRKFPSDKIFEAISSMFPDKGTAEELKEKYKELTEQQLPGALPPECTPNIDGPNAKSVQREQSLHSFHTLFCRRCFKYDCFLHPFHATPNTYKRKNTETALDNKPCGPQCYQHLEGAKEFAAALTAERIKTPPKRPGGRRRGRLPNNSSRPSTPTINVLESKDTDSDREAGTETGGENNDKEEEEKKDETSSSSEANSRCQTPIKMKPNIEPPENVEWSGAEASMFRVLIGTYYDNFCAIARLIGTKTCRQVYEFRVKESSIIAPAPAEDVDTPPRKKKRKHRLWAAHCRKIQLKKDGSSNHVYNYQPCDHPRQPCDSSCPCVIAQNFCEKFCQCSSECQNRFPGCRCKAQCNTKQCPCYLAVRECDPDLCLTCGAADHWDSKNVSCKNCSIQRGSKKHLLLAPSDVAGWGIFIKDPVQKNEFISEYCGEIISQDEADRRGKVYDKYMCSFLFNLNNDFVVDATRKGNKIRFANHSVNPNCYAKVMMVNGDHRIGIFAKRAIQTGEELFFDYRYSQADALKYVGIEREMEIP
Chain of Protein kinase C theta type (Q04759 whole entry, looked up): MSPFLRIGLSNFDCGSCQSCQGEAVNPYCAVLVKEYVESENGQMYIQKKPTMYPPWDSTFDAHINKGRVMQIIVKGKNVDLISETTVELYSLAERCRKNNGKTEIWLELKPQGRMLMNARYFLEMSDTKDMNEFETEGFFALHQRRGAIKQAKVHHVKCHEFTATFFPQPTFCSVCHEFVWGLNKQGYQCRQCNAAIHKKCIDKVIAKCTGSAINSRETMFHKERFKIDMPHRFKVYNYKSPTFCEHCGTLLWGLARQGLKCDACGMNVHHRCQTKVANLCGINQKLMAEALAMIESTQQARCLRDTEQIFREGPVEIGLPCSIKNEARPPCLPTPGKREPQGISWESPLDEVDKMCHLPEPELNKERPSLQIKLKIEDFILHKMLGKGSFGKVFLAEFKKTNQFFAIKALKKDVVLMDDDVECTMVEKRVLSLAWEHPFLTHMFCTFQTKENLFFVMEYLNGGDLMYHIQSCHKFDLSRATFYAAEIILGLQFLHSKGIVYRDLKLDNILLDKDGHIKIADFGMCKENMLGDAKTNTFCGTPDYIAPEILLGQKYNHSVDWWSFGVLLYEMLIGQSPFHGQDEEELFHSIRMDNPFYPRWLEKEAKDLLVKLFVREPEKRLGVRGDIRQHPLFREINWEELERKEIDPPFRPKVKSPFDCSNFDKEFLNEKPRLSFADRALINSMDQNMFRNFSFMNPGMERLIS
Chain of Focal adhesion kinase 1 (Q05397 2-1052 limits assumed): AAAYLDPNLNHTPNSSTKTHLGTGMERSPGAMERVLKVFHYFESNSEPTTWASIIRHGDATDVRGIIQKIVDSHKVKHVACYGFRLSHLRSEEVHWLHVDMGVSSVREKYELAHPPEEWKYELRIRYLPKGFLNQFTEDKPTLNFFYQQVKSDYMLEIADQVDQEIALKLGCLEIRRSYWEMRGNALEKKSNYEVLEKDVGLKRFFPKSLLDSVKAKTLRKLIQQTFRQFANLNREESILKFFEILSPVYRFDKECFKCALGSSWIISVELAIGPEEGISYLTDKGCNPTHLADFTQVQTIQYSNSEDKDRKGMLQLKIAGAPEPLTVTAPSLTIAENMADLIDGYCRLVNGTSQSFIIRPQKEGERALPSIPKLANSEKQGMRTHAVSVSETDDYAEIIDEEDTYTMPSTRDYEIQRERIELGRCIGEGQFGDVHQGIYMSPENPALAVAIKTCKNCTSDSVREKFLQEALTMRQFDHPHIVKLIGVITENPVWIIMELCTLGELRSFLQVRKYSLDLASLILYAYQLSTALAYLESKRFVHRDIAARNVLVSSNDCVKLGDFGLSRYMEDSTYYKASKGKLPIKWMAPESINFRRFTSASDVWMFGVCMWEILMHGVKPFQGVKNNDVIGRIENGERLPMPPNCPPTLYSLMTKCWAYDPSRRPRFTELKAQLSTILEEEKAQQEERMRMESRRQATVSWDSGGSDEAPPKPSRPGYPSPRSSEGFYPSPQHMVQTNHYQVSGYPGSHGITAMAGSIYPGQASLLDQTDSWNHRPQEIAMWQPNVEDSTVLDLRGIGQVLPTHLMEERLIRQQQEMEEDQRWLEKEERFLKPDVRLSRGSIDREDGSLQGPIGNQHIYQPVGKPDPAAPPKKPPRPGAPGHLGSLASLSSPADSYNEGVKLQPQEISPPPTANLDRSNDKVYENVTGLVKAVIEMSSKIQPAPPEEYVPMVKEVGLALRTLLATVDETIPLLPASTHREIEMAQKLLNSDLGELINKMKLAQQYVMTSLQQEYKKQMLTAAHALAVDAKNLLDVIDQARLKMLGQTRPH

`COCC(=O)NC/C=C/c1ccc2ncnc(Nc3ccc(Oc4ccc(C)nc4)c(C)c3)c2c1` [CP-724714] returned a % of control in assay [1] of 100%.

Turning to `N#Cc1cccc(-c2c[nH]c3ncnc(N4CCOCC4)c23)c1`, the % of inhibition in [2] was -5%; in assay [3] it was -2%.

As for `CCN(CC)CCCCNc1ncc2cc(-c3cc(OC)cc(OC)c3)c(NC(=O)NC(C)(C)C)nc2n1`, the % of control in assay [4] was 100%.

As to `Cc1cc(F)c(C(=O)Nc2cccc(-c3nncn3C(C)C)n2)cc1-n1cnc(C2CC2)c1`, in assay [5], the % of control came to 90%.

In [6], `O=C(NOC[C@H](O)CO)c1ccc(F)c(F)c1Nc1ccc(I)cc1F` registered a % of control of 100%.

Molecule `Cc1cc([C@@H](C)Nc2ccccc2C(=O)O)c2nc(N3CCOCC3)cc(=O)n2c1` [AZD-6482] returned a % of control in [7] of 91%.

For the molecule `CCc1cc(Nc2nccc(-c3c(-c4ccc(OC)c(C(=O)Nc5c(F)cccc5F)c4)nc4ccccn34)n2)c(OC)cc1N1CCC(N2CCN(S(C)(=O)=O)CC2)CC1`, in assay [8], the % of inhibition worked out at 43%.

Take `CC[C@@H]1[C@H](F)C(=O)N[C@@H]1COc1nccc2cc(C(N)=O)c(OC)cc12` [ZIMLOVISERTIB]: the % of inhibition in [9] is 2.6%.

With `CN1Cc2nccc(-c3cn(C)nc3-c3ccc(F)cc3)c2C1=O`, the % of inhibition in assay [10] came to 5%.

As to `Cc1cc(CN)cc(C)c1-c1ncn(C)c1-c1cncn1C`, the % activity in assay [11] (at 1 µM) was > 90%; in assay [11] (at 10 µM), > 80%.

For the molecule `O[C@H]1CC[C@H](Nc2ncc3nc(Nc4c(F)cc(F)cc4F)n([C@H]4CCOC4)c3n2)CC1`, in assay [12], the % of control was 91%.

`COc1cc(N(C)c2ccnc3ccc(C(F)(F)F)cc23)cc(OC)c1OC` came in with a % binding in assay [13] of 100%.
